Experimental data reported in article PMC8876511, “Two out of Three Musketeers Fight against Cancer: Synthesis, Physicochemical, and Biological Properties of Phosphino Cu^I, Ru^II, Ir^III Complexes” (Pharmaceuticals, 2022).
Blank lines part the entries; values can stand above or below the compound they belong to.

Key:
[1] = Partition coefficient, shake-flask method (n-octanol/PBS); format: physicochemical
Experimental: The partition coefficient was determined by the shake-flask method. A small amount of compound was dissolved in 5 mL PBS-saturated n-octanol. The sample was sonicated until all the compound was dissolved. Next, 5 mL of PBS saturated with n-octanol was added and the experiment proceeded as before. The resulting mixture was vortexed for 30 min in horizontal position. The sample was centrifuged for 2 min at 3700 rpm to obtain a phase separation. Next, 2 mL of each phase was taken. The next steps were a 5 min sonication and measurement of absorption spectra of the obtained solutions. The calibration curve was prepared in order to determine the concentration of the tested compounds in individual solutions. It was made using the absorption intensity of the compounds in series dilution solutions in PBS saturated with octanol or octanol saturated with PBS in the concentration range c = 1–100 nM.

MCF-7 cells = assay: MTT cytotoxicity assay, MCF-7; format: cell-based, human
Experimental: (§1) Moreover, to investigate the activity of synthesized complexes as potential anticancer agents, their cytotoxicity toward a series of human cancer cell lines and a non-cancer cell line (HaCaT) was evaluated using the MTT assay. […] In addition, we also determined the cytotoxic activity of free ligands toward selected cancer cells. […] However, this effect depends on the cell line. […] The best values of cytotoxic activity of compounds have been obtained after 72 h of cell incubation. Additionally, synthesized complexes had high sensitivity to A549 cells, so this cell line was selected as the research subject for antitumor activity.
(§2) MCF7 cell line (human breast adenocarcinoma, morphology: epithelial-like, ATCC: HTB-22) and A549 cell line (human lung adenocarcinoma, morphology: epithelial, ATCC: CCL-185); HaCaT (human keratinocyte) were cultured in Dulbecco’s Modified Eagle’s Medium (DMEM, Corning, Poland) with phenol red, supplemented with 10% fetal bovine serum (FBS) and with 1% streptomycin/penicillin. Du-145 cell line (human prostate carcinoma); derived from metastatic site: brain was cultured in minimum essential medium (MEM, Corning) with only 10% fetal bovine serum (FBS). Cultures were incubated at 37 °C under a humidified atmosphere containing 5% CO2. Cells were passaged using a solution containing 0.05% trypsin and 0.5 mM EDTA. All media and other ingredients were purchased from ALAB, Poland.
Since most of the studied compounds are insoluble in aqueous media (Dulbecco’s Modified Eagle’s Medium or minimum essential medium (MEM, Corning), therefore, they needed to be pre-dissolved in DMSO for biological tests. DMSO concentration was kept below 1% in each tested concentration of each compound. […] In brief, 5×10^3 per well (0.2 mL) in the two first approaches, while 1×10^4 cells in the case of longer incubation time were seeded in 96-well flat-bottom microtiter plate, were incubated with the tested complexes at various ranges of concentrations. […] Various compound concentrations (dilutions in proper medium supplemented with 1% FBS) were tested in five replicates and repeated at least three times. Determined values of IC50 (concentration of a drug required to inhibit the growth of 50% of the cells) are given as mean + S.D. (Standard Deviation). IC50 values were determined, from the plots of cell viability in the presence of various concentrations of each compound by matching dose–response curves and using the Origin 9.0 software. Furthermore, post-treatment survival assessment of the treated cells was analyzed under an inverted fluorescence microscope (Olympus IC51, Japan) with an excitation filter 470/20 nm. For this, cells were stained with two versatile fluorescence dyes: fluorescein diacetate (FDA, 5 mg/mL) and propidium iodide (PI, 5 mg/mL) in standard conditions in the dark for 20 min. Before visualization, dyes were removed and cells were washed with PBS twice.

PANC-1 cells [2] = assay: MTT cytotoxicity assay, PANC-1; format: cell-based, human; conditions: 48 h
HaCaT cells [3] = assay: MTT cytotoxicity assay, HaCaT (non-cancer); format: cell-based, human; conditions: 48 h
Solubility (qualitative) = format: physicochemical; conditions: H2O:DMSO (100:1)
A549 cells [4] = assay: MTT cytotoxicity assay, A549; format: cell-based, human; conditions: 48 h
HaCaT cells [5] = assay: MTT cytotoxicity assay, HaCaT (non-cancer); format: cell-based, human
Experimental: as §1, §2
(§3) Since most of the studied compounds are insoluble in aqueous media (Dulbecco’s Modified Eagle’s Medium or minimum essential medium (MEM, Corning), therefore, they needed to be pre-dissolved in DMSO for biological tests. DMSO concentration was kept below 1% in each tested concentration of each compound. Cytotoxicity was assessed by MTT assay performed according to the protocols described previously in the following experimental approaches: 6 h + 24 h, 24 h + 24 h, and 72 h + 24 h. In brief, 5×10^3 per well (0.2 mL) in the two first approaches, while 1×10^4 cells in the case of longer incubation time were seeded in 96-well flat-bottom microtiter plate, were incubated with the tested complexes at various ranges of concentrations. After an appropriate incubation time of 6, 24, or 72 h, the cells were washed thee time with PBS and fresh medium was applied for a further 24 h in each approach. Various compound concentrations (dilutions in proper medium supplemented with 1% FBS) were tested in five replicates and repeated at least three times. Determined values of IC50 (concentration of a drug required to inhibit the growth of 50% of the cells) are given as mean + S.D. (Standard Deviation). IC50 values were determined, from the plots of cell viability in the presence of various concentrations of each compound by matching dose–response curves and using the Origin 9.0 software. Furthermore, post-treatment survival assessment of the treated cells was analyzed under an inverted fluorescence microscope (Olympus IC51, Japan) with an excitation filter 470/20 nm. For this, cells were stained with two versatile fluorescence dyes: fluorescein diacetate (FDA, 5 mg/mL) and propidium iodide (PI, 5 mg/mL) in standard conditions in the dark for 20 min. Before visualization, dyes were removed and cells were washed with PBS twice.

PANC-1 cells [6] = assay: MTT cytotoxicity assay, PANC-1; format: cell-based, human
Experimental: as §1, §3

A549 cells [7] = assay: MTT cytotoxicity assay, A549; format: cell-based, human
Experimental: as §1, §2, §3

Experimental LogP (logPo/w) [1]: 3.1
solubility in mixture of H2O:DMSO (100:1) (Solubility (qualitative)): well soluble
Compound: Ru(η^6-p-cymene)Cl2Ph2PCH2N(CH2CH3)2 [1b]
IC50 (MCF-7 cells; 24 h): 295 ± 12 µM
IC50 (MCF-7 cells; 48 h): 352 ± 25 µM
IC50 (MCF-7 cells; 72 h): 145 ± 15 µM
IC50 (PANC-1 cells [2]): 305 ± 13 µM
IC50 (HaCaT cells [3]): 545 ± 33 µM
IC50 (A549 cells [4]): 425 ± 38 µM
IC50 (HaCaT cells [5]; 24 h): 446 ± 20 µM
IC50 (HaCaT cells [5]; 72 h): 303 ± 20 µM
IC50 (PANC-1 cells [6]; 24 h): 146 ± 5 µM
IC50 (PANC-1 cells [6]; 72 h): 128 ± 14 µM
IC50 (A549 cells [7]; 24 h): 59 ± 3 µM
IC50 (A549 cells [7]; 72 h): 10 ± 1 µM

Compound: CCN(CC)C[P+](c1ccccc1)(c1ccccc1)[Ir-3]([Cl])([Cl])[C]1(C)C(C)=C(C)C(C)=C1C [1a, Ir(η^5-Cp*)Cl2Ph2PCH2N(CH2CH3)2]
Experimental LogP (logPo/w) [1]: 3.03
IC50 (MCF-7 cells; 24 h): 189 ± 9 µM
IC50 (MCF-7 cells; 48 h): 184 ± 6 µM
IC50 (MCF-7 cells; 72 h): 85 ± 8 µM
IC50 (PANC-1 cells [2]): 204 ± 29 µM
IC50 (HaCaT cells [3]): 446 ± 26 µM
solubility in mixture of H2O:DMSO (100:1) (Solubility (qualitative)): well soluble
IC50 (A549 cells [4]): 45 ± 4 µM
IC50 (HaCaT cells [5]; 24 h): 456 ± 11 µM
IC50 (HaCaT cells [5]; 72 h): 320 ± 19 µM
IC50 (PANC-1 cells [6]; 24 h): 143 ± 3 µM
IC50 (PANC-1 cells [6]; 72 h): 91 ± 13 µM
IC50 (A549 cells [7]; 24 h): 68 ± 5 µM
IC50 (A549 cells [7]; 72 h): 12 ± 3 µM
